Assay results: the RepoRT retention time repository

Test: RP, Waters CORTECS UPLC C18, 100 × 2.1 mm, 1.6 µm, 40 °C, 0.4 mL/min, estimated dead time 0.55 min; A: water + 0.1% formic acid, pH 3; B: acetonitrile + 0.1% formic acid, pH 3; gradient (min/%B) 0/5 1.12/5 6.41/99.5 10.01/99.5
Conditions: stereoisomer not certain

Structure (SMILES)	LC retention time
COP(N)(=O)SC (stereo not given) [Methamidophos]	0.974 min
CNC(=O)ON=C(C)SC [Methomyl]	4.02 min
COCCCNc1nc(NC(C)C)nc(SC)n1 [Methoprotryne]	3.87 min
COc1cccc(C(=O)NN(C(=O)c2cc(C)cc(C)c2)C(C)(C)C)c1C [Methoxyfenozide]	5.09 min
COc1cc(C)c(C(=O)c2c(OC)ccc(Br)c2C)c(OC)c1OC [Metrafenone]	4.52 min
CSc1nnc(C(C)(C)C)c(=O)n1N [Metribuzin]	3.98 min
COC(=O)c1ccccc1S(=O)(=O)NC(=O)Nc1nc(C)nc(OC)n1 [Metsulfuron-methyl]	3.99 min
COC(=O)C=C(C)OP(=O)(OC)OC [Mevinphos]	3.41 min
CNC(=O)Oc1cc(C)c(N(C)C)c(C)c1 [Mexacarbate]	2.61 min
CCC(C)C1OC2(C=CC1C)CC1CC(CC=C(C)C(OC3CC(OC)C(OC4CC(OC)C(O)C(C)O4)C(C)O3)C(C)C=CC=C3COC4C(O)C(C)=CC(C(=O)O1)C34O)O2 (stereo not given) [Mixture of Avermectin B1a and B1b]	6.5 min
CCSC(=O)N1CCCCCC1 [Molinate]	5.03 min
CNC(=O)C=C(C)OP(=O)(OC)OC [Monocrotophos]	2.65 min
CON=C1CC2(CC3CC(CC=C(C)CC(C)C=CC=C4COC5C(O)C(C)=CC(C(=O)O3)C45O)O2)OC(C(C)=CC(C)C)C1C (stereo not given) [Moxidectin]	6.81 min
CCCCC(C#N)(Cn1cncn1)c1ccc(Cl)cc1 (stereo not given) [Myclobutanil]	4.93 min
CCCCCCCCCCCCCC(=O)OC(CC(=O)[O-])C[N+](C)(C)C [Myristoyl-L-carnitine]	5.13 min
CCC(C)C(=O)NCC(=O)O (stereo not given) [N-(2-Methylbutyryl)glycine]	2.27 min
O=C(O)CNC(=O)C=Cc1ccccc1 [N-(CINNAMOYL)GLYCINE]	3.26 min
CSCCC(NC(C)=O)C(=O)O (stereo not given) [N-ACETYLMETHIONINE]	2.34 min
CC(=O)NCCc1c[nH]c2ccc(O)cc12 [N-ACETYLSEROTONIN]	2.55 min
CC(=O)NC(Cc1c[nH]c2ccccc12)C(=O)O (stereo not given) [N-ACETYLTRYPTOPHAN]	3.14 min
CC(=O)N[C@@H](Cc1ccc(O)cc1)C(=O)O [N-Acetyl-L-tyrosine]	2.29 min
CNCCc1c[nH]c2ccccc12 [N-METHYLTRYPTAMINE]	2.54 min
CCN(Cc1ccc(Cl)nc1)C(=C[N+](=O)[O-])NC [Nitenpyram]	2.6 min

Structure (SMILES)	LC retention time
CC(CC(=O)O)C1CCC2C3CCC4CC(O)CCC4(C)C3CC(O)C12C (stereo not given) [Nor-Desoxycholic Acid]	4.88 min
O=C(NC(=O)c1c(F)cccc1F)Nc1ccc(OC(F)(F)C(F)OC(F)(F)F)c(Cl)c1 (stereo not given) [Novaluron]	5.71 min
CC(CCC(=O)O)C1CCC2C3C(=O)CC4CC(O)CCC4(C)C3CCC12C (stereo not given) [Nutriacholic Acid]	4.8 min
CCCCCCCCC=CCCCCCCCC(=O)OC(CC(=O)[O-])C[N+](C)(C)C [Oleoyl-L-carnitine]	5.63 min
CNC(=O)CSP(=O)(OC)OC [Omethoate]	1.75 min
CC(C)Oc1cc(-n2nc(C(C)(C)C)oc2=O)c(Cl)cc1Cl [Oxadiazon]	6.14 min
COCC(=O)N(c1c(C)cccc1C)N1CCOC1=O [Oxadixyl]	3.8 min
Cc1cc(C)nc(NC(=O)NS(=O)(=O)c2ccccc2C(=O)OC2COC2)n1 [Oxasulfuron]	3.85 min
CC1(C)COC(=O)C1O (stereo not given) [PANTOLACTONE]	3.31 min
Cn1c(=O)[nH]c2ncn(C)c2c1=O [PARAXANTHINE]	2.15 min
NC(Cc1ccccc1)C(=O)O (stereo not given) [PHENYLALANINE]	1.25 min
NCC(O)c1ccccc1 (stereo not given) [PHENYLETHANOLAMINE]	0.755 min
O=C(O)c1ccccn1 [PICOLINATE]	0.719 min
O=C(O)c1ccc[nH]1 [PYRROLE-2-CARBOXYLATE]	0.766 min
CC(C)(C)C(O)C(Cc1ccc(Cl)cc1)n1cncn1 (stereo not given) [Paclobutrazol]	4.7 min
CCCC(Cn1cncn1)c1ccc(Cl)cc1Cl (stereo not given) [Penconazole]	5.19 min
O=C(Nc1ccccc1)N(Cc1ccc(Cl)cc1)C1CCCC1 [Pencycuron]	5.69 min
CCC(CC)Nc1c([N+](=O)[O-])cc(C)c(C)c1[N+](=O)[O-] [Pendimethalin (Penoxalin)]	5.42 min
COC(=O)Nc1cccc(OC(=O)Nc2cccc(C)c2)c1 [Phenmediphan]	4.71 min
CCOC(=O)C(SP(=S)(OC)OC)c1ccccc1 (stereo not given) [Phenthoate]	5.54 min
O=C(O)C(=O)Cc1ccccc1 [Phenylpyruvic acid]	2.29 min
CCOP(=S)(OCC)SCn1c(=O)oc2cc(Cl)ccc21 [Phosalone]	5.7 min
